In US4551534A, “Aralkyl or aryloxyalkyl 1,7-naphthyridine-3-carboxylic acid esters” (American Home Products Corporation, priority 1984, dated 1985):

Assays:
[1] = system: spontaneously hypertensive rats; test: Hypotensive in vivo effect: systolic blood pressure of spontaneously hypertensive rats; design: species or system rat; details: 50 mg/kg oral, group of 4 spontaneously hypertensive rats
Protocol: The hypotensive in vivo effect of the compounds of this invention was determined by measuring changes in the systolic blood pressure of spontaneously hypertensive rats with a Decker Caudal Plethysmograph. The compound being tested was administered to a group of 4 rats and their systolic pressure was determined prior to and at 1.5 and 4 hours after compound administration. Initial testing was done by oral administration of the compound at a dose of 50 mg/kg body weight. Results (mmHg) are expressed as decreases in systolic blood pressure.
(§1) The following examples illustrate the preparation of a representative number of compounds of this invention. After each example, the Ca^+2 antagonist activity of the compound is presented in terms of percent relaxation (P.R.) at 10^-5 M concentration unless indicated otherwise. Similarly, the antihypertensive activity is reported in terms of millimeters mercury (mmHg) blood pressure (B.P.) reduction at the stated time post 50 mg/kg oral dosing or other dosing as indicated.

[2] = system: rabbit aortic smooth muscle; test: Ca+2 antagonism: relaxation of KCl-depolarized rabbit aortic smooth muscle strips; details: Oryctolagus cuniculus, 20 min; 10^-5 M; 100 mM KCl contraction; mean of two experiments 20 minutes after addition; read-out: percent relaxation (P.R.)
Protocol: The composition of PSS was as follows (mM): NaCl 112, KCl 5, NaHCO3 25, KH2 PO4 1, MgSO4 1.2, CaCL2 2.5, dextrose 10. The lower end of each tissue strip was attached to a fixed post and the upper end to a Statham UC-4 transducer. Changes in force development were recorded on a Beckman Dynograph Polygraphic Recorder.
Following equilibration, the muscles were contracted in a depolarizing solution of PSS in which 100 mM KCl was substituted for an equimolar concentration of NaCl. Following attainment of steady-state isometric force (20 min.), the test compound was added to afford a final concentration of 1×10^-5 M. The inhibitory effect, expressed as percent relaxation, was determined from the mean of two experiments twenty minutes after the addition of the compound being tested.
as §1

[3] = system: isolated paced intact rabbit atria; test: Cardiac depressant (negative inotropic) effects in isolated paced intact rabbit atria; details: 3 Hz, 30° C., cumulative 10^-9 M to 10^-5 M
Protocol: (§2) The potential for detrimental cardiac depressant (negative inotropic) effects of the compounds of this invention was assessed in isolated paced intact rabbit atria. […] Muscles (N=5-9/compound) were stimulated at a frequency of 3 Hz with a WPI stimulator for a 60 minute equilibration period. Changes in isometric force were recorded as described for the aortic smooth muscle experiments,supra. […]

[4] = system: spontaneously hypertensive rats; test: Hypotensive in vivo effect: systolic blood pressure of spontaneously hypertensive rats; design: species or system rat; details: 50 mg/kg oral
[5] = Cardiac depressant (negative inotropic) effects in isolated paced intact rabbit atria; details: isolated paced atria, 10^-5 M, read-out: inhibition (of developed isometric force) at the highest concentration
Protocol: as §2

Row | IC25 (concentration which produces 25% inhibition of isometric force) [3] [µM] | inhibition at 10 µM [5] [%] | SMILES | blood pressure (B.P.) reduction at 1.5 hours [1] [mmHg] | blood pressure (B.P.) reduction at 4 hours [1] [mmHg] | inhibition at 10 µM [2] [%] | blood pressure (B.P.) reduction at 24 hours [4] [mmHg]
1 | > 10 | – | COC(=O)C1=C(C)NC2=C(C(=O)CN(CC(O)COc3cccc(C)c3C)C2)C1c1ccccc1C (stereo not shown) [Example 1, 7-[3-(2,3-Dimethylphenoxy)-2-hydroxypropyl]-1,4,5,6,7,8-hexahydro-2-methyl-4-(2-methylphenyl)-5-oxo-1,7-naphthyridine-3-carboxylic acid methyl ester] | -30 | -34 | 91 | –
2 | 5 | – | COC(=O)C1=C(C)NC2=C(C(=O)CN(CC(O)COc3cccc(C)c3C)C2)C1c1c(F)c(F)c(F)c(F)c1F (stereo not shown) [Example 2, 7-[3-(2,3-Dimethylphenoxy)-2-hydroxypropyl]-1,4,5,6,7,8-hexahydro-2-methyl-5-oxo-4-(pentafluorophenyl)-1,7-naphthyridine-3-carboxylic acid methyl ester] | -56 | -86 | 65 | -28
3 | 6 | – | COC(=O)C1=C(C)NC2=C(C(=O)CN(CC(O)COc3cccc(C)c3C)C2)C1c1c(F)c(F)cc(F)c1F (stereo not shown) [Example 3] | -25 | -56 | 63 | –
4 | > 10 | – | COC(=O)C1=C(C)NC2=C(C(=O)CN(CC(O)COc3cccc(C)c3C)C2)C1c1c(F)ccc(Cl)c1Cl (stereo not shown) [Example 4, 4-(2,3-Dichloro-6-fluorophenyl)-7-[3-(2,3-dimethylphenoxy)-2-hydroxypropyl]1,4,5,6,7,8-hexahydro-2-methyl-5-oxo-1,7-naphthyridine-3-carboxylic acid methyl ester] | -56 | -72 | 42 | –
5 | > 10 | – | COC(=O)C1=C(C)NC2=C(C(=O)CN(CC(O)COc3cccc(Cl)c3Cl)C2)C1c1ccccc1C (stereo not shown) [Example 5, 7-[3-(2,3-Dichlorophenoxy)-2-hydroxypropyl]-1,4,5,6,7,8-hexahydro-2-methyl-4-(2-methylphenyl)-5-oxo-1,7-naphthyridine-3-carboxylic acid methyl ester] | -23 | -25 | 62 | –
6 | 4.5 | – | COC(=O)C1=C(C)NC2=C(C(=O)CN(CC(O)COc3ccccc3)C2)C1c1c(F)c(F)c(F)c(F)c1F (stereo not shown) [Example 6, 1,4,5,6,7,8-Hexahydro-2-methyl-5-oxo-4-(pentafluorophenyl)-7-(3-phenoxy-2-hydroxypropyl)-1,7-naphthyridine-3-carboxylic acid methyl ester] | -54 | -80 | 67 | –
7 | 5 | – | COC(=O)C1=C(C)NC2=C(C(=O)CN(CC(O)COc3ccc(OC)cc3)C2)C1c1c(F)c(F)c(F)c(F)c1F (stereo not shown) [Example 7, 1,4,5,6,7,8-Hexahydro-7-[3-(4-methoxyphenoxy)-2-hydroxypropyl]-2-methyl-5-oxo-4-(pentafluorophenyl)-1,7-naphthyridine-3-carboxylic acid methyl ester] | -31 | -56 | 73 | –
8 | 7 | – | COC(=O)C1=C(C)NC2=C(C(=O)CN(CC(O)COc3cccc(C)c3C)C2)C1c1cccc(Cl)c1Cl (stereo not shown) [Example 8, 4-(2,3-Dichlorophenyl)-7-[3-(2,3-dimethylphenoxy)-2-hydroxypropyl]-1,4,5,6,7,8-hexahydro-2-methyl-5-oxo-1,7-naphthyridine-3-carboxylic acid methyl ester] | -16 | -41 | 50 | –
9 | 3.5 | – | COC(=O)C1=C(C)NC2=C(C(=O)CN(CCCOc3ccccc3)C2)C1c1c(F)c(F)c(F)c(F)c1F (stereo not shown) [Example 9, 1,4,5,6,7,8-Hexahydro-2-methyl-5-oxo-4-(pentafluorophenyl)-7-(3-phenoxypropyl)-1,7-naphthyridine-3-carboxylic acid methyl ester] | -43 | -41 | 61 | –
10 | 3 | – | COC(=O)C1=C(C)NC2=C(C(=O)CN(CC(O)CCc3ccccc3)C2)C1c1c(F)c(F)c(F)c(F)c1F (stereo not shown) [Example 10, 1,4,5,6,7,8-Hexahydro-7-(2-hydroxy-4-phenylbutyl)-2-methyl-5-oxo-4-(pentafluorophenyl)-1,7-naphthyridine-3-carboxylic acid methyl ester] | -41 | -51 | 80.5 | –
11 | – | – | COC(=O)C1=C(C)NC2=C(C(=O)CN(CC(O)c3ccccc3)C2)C1c1c(F)c(F)c(F)c(F)c1F (stereo not shown) [Example 11, 1,4,5,6,7,8-Hexahydro-7-(2-hydroxy-2-phenylethyl)-2-methyl-5-oxo-4-pentafluorophenyl-1,7-naphthyridine-3-carboxylic acid methyl ester] | -58 | -73 | 66.5 | –
12 | – | < 20 | NCCCCCCNS(=O)(=O)c1cccc2c(Cl)cccc12 [Example W-7, reference compound] | – | – | – | –
13 | 0.8 | – | CCOC(=O)C1=C(C)NC(C)=C(C(=O)OC)C1c1cccc(Cl)c1Cl (stereo not shown) [felodipine, reference compound] | – | – | – | –
14 | 0.35 | – | CCOC(=O)C1=C(C)NC(C)=C(C(=O)OC)C1c1cccc([N+](=O)[O-])c1 (stereo not shown) [nitrendipine, reference compound] | – | – | – | –

Row | SMILES | IC25 (concentration which produces 25% inhibition of isometric force) [3] [µM] | inhibition at 10 µM [5] [%] | blood pressure (B.P.) reduction at 1.5 hours [1] [mmHg] | blood pressure (B.P.) reduction at 4 hours [1] [mmHg] | inhibition at 10 µM [2] [%] | blood pressure (B.P.) reduction at 24 hours [4] [mmHg]
15 | COc1ccc(CCN(C)CCCC(C#N)(c2ccc(OC)c(OC)c2)C(C)C)cc1OC (stereo not shown) [Verapamil, reference compound] | 0.06 | – | – | – | – | –
16 | COC(=O)C1=C(C)NC(C)=C(C(=O)OC)C1c1ccccc1[N+](=O)[O-] [nifedipine, reference compound] | 0.05 | – | – | – | – | –
